Measurements from paper PMC11915835, “Enhancing the solubility of SARS-CoV-2 inhibitors to increase future prospects for clinical development” (Journal of Virology, 2025).
Like-named read-outs stand apart in the source and are kept apart here.

Assays:
[1] = Chemical stability in PBS by UPLC; format: physicochemical; conditions: room temperature; for Peptide degradation after incubation in PBS: 2 weeks, UPLC 220 nm, disulfide peak after 1 day removed by TCEP; for Integrity during the solubility study: up to 168 h, UPLC, 220 nm
[2] = target: SARS-CoV-2 HRN peptide (55 residues) (Severe acute respiratory syndrome coronavirus 2, UniProt P0DTC2); format: binding; conditions: pH 7.4
[3] = target: SARS-CoV-2 tHRN peptide (44 residues) (Severe acute respiratory syndrome coronavirus 2, UniProt P0DTC2); format: binding
[4] = tested on: SARS-CoV-2 S BA.5; format: cell-based; conditions: for IC50: read-out: IC50, inhibition of S-mediated cell–cell fusion, SARS-CoV-2 BA.5; for IC90: read-out: IC90, inhibition of S-mediated cell–cell fusion, SARS-CoV-2 BA.5
[5] = pH 7.4

Row | Compound | Peptide degradation after incubation in PBS [1] | Temperature above which disruption of the helical assembly with HRN is detectable [2] | Tm of 1:1 mixture with tHRN ([3]; 5-95 °C) | IC50 [4] | IC90 [4] | Integrity during the solubility study [1] | Solubility relative to HRC-L [5] | also measured
1 | Ac-DISQINASVVNIEYEIKKLEEVAKKLEESLIDLQEL-NH2 [QE] | No peptide degradation was observed | > 70 °C | 65 +/- 0.5 °C | 7 ± 2.1 nM | 14 ± 4 nM | – | – | –
2 | Ac-PDVDLGDISQINASVVNIEYEIKKLEEVAKKLEESLIDLQEL-NH2 [QE-EXT] | – | – | – | 5.6 ± 0.72 nM | – | – | – | –
3 | Ac-SIDQINATFVDIEYEIKKLEEVAKKLEESYIDLKEL-NH2 [SK] | No peptide degradation was observed | > 70 °C | 72 +/- 0.3 °C | 6.2 ± 1.1 nM | 14 ± 2 nM | – | – | –
4 | Ac-DISQINASVVNIEYEIKKLEEVAKKLEESLIDLQELGSGSGC-NH2 [QE-L] | – | – | – | – | – | remained intact | ~ two-fold | –
5 | CC[C@H](C)[C@H](NC(=O)[C@H](C)NC(=O)[C@H](CCC(=O)O)NC(=O)[C@H](CCC(=O)O)NC(=O)[C@H](CC(C)C)NC(=O)[C@H](CCCCN)NC(=O)[C@H](CCCCN)NC(=O)[C@H](CCSC)NC(=O)[C@H](CCC(=O)O)NC(=O)[C@H](Cc1ccc(O)cc1)NC(=O)[C@H](CCC(=O)O)NC(=O)[C@H](CC(C)C)NC(=O)[C@H](CC(=O)O)NC(=O)[C@H](CC(C)C)NC(=O)[C@H](Cc1ccccc1)NC(=O)[C@@H](NC(=O)[C@@H](NC(=O)[C@H](CC(N)=O)NC(=O)[C@@H](NC(=O)[C@H](CCC(N)=O)NC(=O)[C@H](CC(=O)O)NC(=O)[C@H](CC(C)C)NC(=O)[C@H](CO)NC(C)=O)[C@@H](C)CC)C(C)C)[C@@H](C)O)C(=O)N[C@@H](CCCCN)C(=O)N[C@@H](CCCCN)C(=O)N[C@@H](CC(C)C)C(=O)N[C@@H](CCC(=O)O)C(=O)N[C@@H](CCC(=O)O)C(=O)N[C@@H](CO)C(=O)N[C@@H](Cc1ccc(O)cc1)C(=O)N[C@H](C(=O)N[C@@H](CC(=O)O)C(=O)N[C@@H](CC(C)C)C(=O)N[C@@H](CCCCN)C(=O)N[C@@H](CCC(=O)O)C(=O)N[C@@H](CC(C)C)C(N)=O)[C@@H](C)CC [EK1, reference compound] | – | – | – | – | – | – | – | Tm of 1:1 mixture with tHRN ([3]; pH 7.4): 38 ± 0.3 °C
6 | Ac-SIDQINATFVDIEYEIKKLEEVAKKLEESYIDLKELGSGSGC-NH2 [SK-L] | – | – | – | – | – | remained intact | ~ two-fold | –
